According to patent US8710003B2, “Treatment of diabetes with milk protein hydrolysate” (Nestec S.A., priority 1999, dated 2014):

Tested on: NCI-H716 cells
Assay: Release of active GLP-1 by NCI-H716 cells
Type: cell-based, human
Details: alpha-lactose dose equivalent to that contained in the wheys, 2 h incubation, active GLP-1 only
Experimental: Cells were grown in suspension at 37° C., 5% CO2. The culture medium consisted of RPMI 1640 supplemented with 10% FBS, 2 mM L-glutamine, 100 IU/ml penicillin and 100 μg/ml streptomycin. […] Cells were, therefore, seeded in dishes coated with […] ® (Becton Dickinson, Bedford, Mass., USA) two days before experiments.
Two days before experiments, 1×10^6 cells were seeded in 12 well culture plates coated with […] ®. On the day of the experiment, the supernatant was replaced by Krebs-Ringer Bicarbonate Buffer (KRB) containing 0.2% wt/vol BSA with or without CGMP. Cells were incubated for 2 h at 37° C. Supernatants were collected with the addition of 50 μg/ml PMSF and frozen at −80° C. for subsequent analysis by radioimmunoassay (RIA) of GLP-1. Cells were scraped with a rubber policeman and homogenization buffer [1 N HCl containing 5% (v/v) HCOOH, 1% (v/v) trifluoroacetic acid (TFA), and 1% (v/v) NaCl] and sonicated for 15 s. […] The intraassay coefficient of variance was 2.28%.
Here, a kit was used that only measures the active form of GLP-1, i.e., GLP-1 (7-37) or GLP-1 (7-36 amide), but not the degraded form, GLP-1 (9-36 amide), as was included in the data for FIGS. 1-3.

SMILES: OC[C@H]1O[C@@H](O[C@H]2[C@H](O)[C@@H](O)[C@@H](O)O[C@@H]2CO)[C@H](O)[C@@H](O)[C@H]1O [alpha-lactose]
- GLP-1 secretion compared to the control: 144±32%
